Measurements published in patent US4742053A, “3-Isoquinoliniomethyl cephalosporin derivatives” (Banyu Pharmaceutical Co., Ltd., priority 1984, dated 1988).
Values after ≈ are worked out from the molar mass of the structure shown. Like-named read-outs stand apart in the source and are kept apart here.

What was measured:
Assay in all cases: MIC by agar plate dilution method
Assay type in all cases: cell-based
[1] = test system: E. coli CSH2; conditions: Escherichia coli, 10^6 CFU/ml, read-out: Minimum Inhibitory Concentration
Experimental: (§1) The minimum inhibitory concentrations (MIC: μg/ml) of the compounds of the present invention against various microorganisms were measured by an agar plate dilution method (inoculum size: 10^6 CFU/ml) by using Sensitivity Disk Agar (Nissui) in comparison with Cefotaxime and Ceftazidime as comparative compounds.
(§2) Minimum Inhibitory Concentration (μg/ml; 10^6 CFU/ml)

[2] = test system: P. aeruginosa AKR17; conditions: Pseudomonas aeruginosa, AKR17, P. aeruginosa AKR17; 10^6 CFU/ml; read-out: Minimum Inhibitory Concentration
Experimental: as §1, §2

[3] = test system: E. coli ML1410/Rte16; conditions: Escherichia coli, ML1410/RTE16, read-out: Minimum Inhibitory Concentration, E. coli ML1410/Rte16; 10^6 CFU/ml
Experimental: as §1, §2

[4] = test system: E. coli W3630/Rms213; conditions: Escherichia coli, W3630/RMS213, read-out: Minimum Inhibitory Concentration, E. coli W3630/Rms213; 10^6 CFU/ml
Experimental: as §1, §2

[5] = test system: K. pneumoniae No. 42; conditions: Klebsiella pneumoniae; K. pneumoniae No. 42; 10^6 CFU/ml; read-out: Minimum Inhibitory Concentration
Experimental: as §1, §2

[6] = test system: E. coli CSH; conditions: Escherichia coli, 10^6 CFU/ml, read-out: Minimum Inhibitory Concentration
Experimental: as §1, §2

[7] = test system: P. vulgaris OB1043; conditions: Proteus vulgaris, OB1043, P. vulgaris OB1043; 10^6 CFU/ml; read-out: Minimum Inhibitory Concentration
Experimental: as §1, §2

[8] = test system: E. coli NIHJJC-2; conditions: Escherichia coli, NIHJJC2, E. coli NIHJJC-2; 10^6 CFU/ml; read-out: Minimum Inhibitory Concentration
Experimental: as §1, §2

[9] = test system: P. mirabilis JY10; conditions: Proteus mirabilis
Experimental: as §1, §2

[10] = test system: E. cloaceae Nek 39; conditions: E. cloaceae Nek 39; 10^6 CFU/ml; read-out: Minimum Inhibitory Concentration
Experimental: as §1, §2

[11] = test system: P. cepacia 23; conditions: Burkholderia cepacia; P. cepacia 23; 10^6 CFU/ml; read-out: Minimum Inhibitory Concentration
Experimental: as §1, §2

[12] = test system: P. maltophilia IID 1275; conditions: Stenotrophomonas maltophilia, IID1275; P. maltophilia IID 1275; 10^6 CFU/ml; read-out: Minimum Inhibitory Concentration
Experimental: as §1, §2

[13] = test system: A. calcoaceticus No. 14; conditions: Acinetobacter calcoaceticus, NO.14, A. calcoaceticus No. 14; 10^6 CFU/ml; read-out: Minimum Inhibitory Concentration
Experimental: as §1, §2

[14] = test system: P. vulgaris No. 33; conditions: Proteus vulgaris
Experimental: as §1, §2

[15] = test system: S. aureus JS-1; conditions: Staphylococcus aureus, JS1; S. aureus JS-1; 10^6 CFU/ml; read-out: Minimum Inhibitory Concentration
Experimental: as §1, §2

[16] = test system: C. freundii No. 7; conditions: Citrobacter freundii; C. freundii No. 7; 10^6 CFU/ml; read-out: Minimum Inhibitory Concentration
Experimental: as §1, §2

[17] = test system: S. marcescens No. 16-2; conditions: Serratia marcescens
Experimental: as §1, §2

[18] = test system: P. aeruginosa AK109; conditions: Pseudomonas aeruginosa, AK109, P. aeruginosa AK109; 10^6 CFU/ml; read-out: Minimum Inhibitory Concentration
Experimental: as §1, §2

[19] = test system: E. coli W3630/Rms212; conditions: Escherichia coli, W3630/RMS212, read-out: Minimum Inhibitory Concentration, E. coli W3630/Rms212; 10^6 CFU/ml
Experimental: as §1, §2

[20] = test system: E. coli C/Rms149; conditions: Escherichia coli, read-out: Minimum Inhibitory Concentration, E. coli C/Rms149; 10^6 CFU/ml
Experimental: as §1, §2

[21] = test system: S. aureus NIHJJC-1; conditions: Staphylococcus aureus
Experimental: as §1, §2

[22] = P. vulgaris No. 33, 10^6 CFU/ml, read-out: Minimum Inhibitory Concentration
[23] = NO.162, read-out: Minimum Inhibitory Concentration
[24] = NIHJJC1, S. aureus NIHJJC-1, 10^6 CFU/ml, read-out: Minimum Inhibitory Concentration
[25] = P. mirabilis JY10, 10^6 CFU/ml, read-out: Minimum Inhibitory Concentration
[26] = NO.162, S. marcescens No. 16-2, 10^6 CFU/ml, read-out: Minimum Inhibitory Concentration

| SMILES | MIC [1] [µg/mL] | MIC [2] [µg/mL] | MIC [3] [µg/mL] | MIC [4] [µg/mL] | MIC [5] [µg/mL] | MIC [6] [µg/mL] | MIC [7] [µg/mL] | MIC [8] [µg/mL] | MIC [10] [µg/mL] | MIC [11] [µg/mL] | MIC [12] [µg/mL] | MIC [13] [µg/mL] | MIC [14, 22] [µg/mL] | MIC [15] [µg/mL] | MIC [16] [µg/mL] | MIC [18] [µg/mL] | MIC [19] [µg/mL] | MIC [20] [µg/mL] | MIC [21, 24] [µg/mL] | MIC [9, 25] [µg/mL] | other results |
| --- | --- | --- | --- | --- | --- | --- | --- | --- | --- | --- | --- | --- | --- | --- | --- | --- | --- | --- | --- | --- | --- |
| CC(C)ON=C(C(=O)NC1C(=O)N2C(C(=O)[O-])=C(C[N+]3(C)CCc4cc(O)c(O)cc4C3)CSC12)c1csc(N)n1 (stereo not drawn) [Ex. 13, 7-[(Z)-2-(2-aminothiazol-4-yl)-2-isopropoxyiminoacetamido]-3-(6,7-dihydroxy-2-methyl-1,2,3,4-tetrahydro-2-isoquinolinium)methyl-3-cephem-4-carboxylate] | 0.05 (≈ 0.083 µM) | 0.2 (≈ 0.332 µM) | 0.025 (≈ 0.0415 µM) | 0.05 (≈ 0.083 µM) | 0.1 (≈ 0.166 µM) | 0.05 (≈ 0.083 µM) | 0.2 (≈ 0.332 µM) | 0.05 (≈ 0.083 µM) | 0.006 (≈ 0.00996 µM) | 0.05 (≈ 0.083 µM) | 12.5 (≈ 20.7 µM) | 0.2 (≈ 0.332 µM) | 0.1 (≈ 0.166 µM) | 12.5 (≈ 20.7 µM) | 3.12 (≈ 5.18 µM) | 0.05 (≈ 0.083 µM) | 0.0125 (≈ 0.0207 µM) | 0.025 (≈ 0.0415 µM) | 3.12 (≈ 5.18 µM) | – | MIC ([9]; JY10, read-out: Minimum Inhibitory Concentration): 0.39 µg/mL (≈ 0.647 µM); MIC [17, 23]: 1.56 µg/mL (≈ 2.59 µM) |
| C[N+]1(CC2=C(C(=O)[O-])N3C(=O)C(NC(=O)C(=NOCC(=O)O)c4csc(N)n4)C3SC2)CCc2cc(O)c(O)cc2C1 (stereo not drawn) [Ex. 14-F, 7-[(Z)-2-(2-aminothiazol-4-yl)-2-carboxymethoxyiminoacetamido]-3-(6,7-dihydroxy-2-methyl-1,2,3,4-tetrahydro-2-isoquinolinium)methyl-3-cephem-4-carboxylate] | 0.025 (≈ 0.0404 µM) | 0.1 (≈ 0.162 µM) | 0.025 (≈ 0.0404 µM) | 0.1 (≈ 0.162 µM) | 0.05 (≈ 0.0808 µM) | 0.05 (≈ 0.0808 µM) | 0.1 (≈ 0.162 µM) | 0.025 (≈ 0.0404 µM) | 0.006 (≈ 0.0097 µM) | 0.05 (≈ 0.0808 µM) | 3.12 (≈ 5.04 µM) | 0.1 (≈ 0.162 µM) | – | 50 (≈ 80.8 µM) | 0.78 (≈ 1.26 µM) | 0.05 (≈ 0.0808 µM) | 0.006 (≈ 0.0097 µM) | 0.025 (≈ 0.0404 µM) | 12.5 (≈ 20.2 µM) | 0.2 (≈ 0.323 µM) | MIC ([14]; NO.33, read-out: Minimum Inhibitory Concentration): 0.05 µg/mL (≈ 0.0808 µM); MIC [17, 26]: 0.39 µg/mL (≈ 0.63 µM) |
| CC(C)(ON=C(C(=O)NC1C(=O)N2C(C(=O)[O-])=C(C[N+]3(C)CCc4cc(O)c(O)cc4C3)CSC12)c1csc(N)n1)C(=O)O (stereo not drawn) [Ex. 15, 7-[(Z)-2-(2-aminothiazol-4-yl)-2-(1-carboxy-1-methylethoxyimino)acetamido]-3-(6,7-dihydroxy-2-methyl-1,2,3,4-tetrahydro-2-isoquinolinium)methyl-3-cephem-4-carboxylate] | 0.025 (≈ 0.0387 µM) | 0.05 (≈ 0.0773 µM) | 0.025 (≈ 0.0387 µM) | 0.025 (≈ 0.0387 µM) | 0.05 (≈ 0.0773 µM) | 0.05 (≈ 0.0773 µM) | 0.05 (≈ 0.0773 µM) | 0.025 (≈ 0.0387 µM) | < 0.006 | 0.025 (≈ 0.0387 µM) | 3.12 (≈ 4.82 µM) | 0.78 (≈ 1.21 µM) | 1 (≈ 1.55 µM) | 100 (≈ 155 µM) | 0.2 (≈ 0.309 µM) | 0.025 (≈ 0.0387 µM) | 0.025 (≈ 0.0387 µM) | 0.0125 (≈ 0.0193 µM) | 12.5 (≈ 19.3 µM) | 0.1 (≈ 0.155 µM) | MIC [17, 26]: 0.39 µg/mL (≈ 0.603 µM) |
| C[N+]1(CC2=C(C(=O)[O-])N3C(=O)C(NC(=O)C(=NOC4CCCC4)c4csc(N)n4)C3SC2)CCc2cc(O)c(O)cc2C1 (stereo not drawn) [Ex. 16-D, 7-[(Z)-2-(2-aminothiazol-4-yl)-2-cyclopentyloxyiminoacetamido]-3-(6,7-dihydroxy-2-methyl-1,2,3,4-tetrahydro-2-isoquinolinium)methyl-3-cephem-4-carboxylate] | 0.1 (≈ 0.159 µM) | 0.2 (≈ 0.318 µM) | 0.025 (≈ 0.0398 µM) | 0.1 (≈ 0.159 µM) | 0.1 (≈ 0.159 µM) | 0.1 (≈ 0.159 µM) | 0.2 (≈ 0.318 µM) | 0.1 (≈ 0.159 µM) | 0.0125 (≈ 0.0199 µM) | 0.0125 (≈ 0.0199 µM) | 12.5 (≈ 19.9 µM) | 1.56 (≈ 2.48 µM) | 0.1 (≈ 0.159 µM) | 12.5 (≈ 19.9 µM) | 1.56 (≈ 2.48 µM) | 0.05 (≈ 0.0795 µM) | 0.0125 (≈ 0.0199 µM) | 0.025 (≈ 0.0398 µM) | – | 0.2 (≈ 0.318 µM) | MIC [17, 23]: 1.56 µg/mL (≈ 2.48 µM); MIC ([21]; NIHJJC1, read-out: Minimum Inhibitory Concentration): 1.56 µg/mL (≈ 2.48 µM) |
